This is an account of results in patent US9458123B2, “Methods, pharmaceutical compositions, therapeutic systems, and compounds for treating B cell malignancies” (University of Rochester, priority 2012, dated 2016).

Entries after “also recorded” stand apart in the source; their conditions may differ.

For assay [1], the system named is PMA-induced NF-κB activation in 293T-NF-luc cells. As to the kind of experiment: NF-κB luciferase reporter assay, PMA stimulation. Format: cell-based. As to conditions: PMA 100 ng/ml, 6 hours. The protocol:
In FIG. 1B, 293T-NF-luc cells were pretreated with the indicated concentrations of NSC697923 or DMSO (final concentration 0.2%; control) for 1 hour. The cells were then stimulated with PMA (100 ng/ml) or TNFα(10 ng/ml) for 6 hours, and the green fluorescence (from GFP for normalization) and luciferase activity in the cell lysate were measured. Data were expressed as the percentage activity of the control (mean+/−standard deviation (SD); n=3). […] The cells were harvested at the indicated times after stimulation, and phosphorylation of IKK and IκBα were analyzed by western blotting. Analysis of actin was used as the loading control.
FIGS. 2A-2D show the effect of NSC697923 related compounds on NF-κB activation induced by PMA. […]
HEK293T cells were transfected with the pNF-κB luciferase reporter construct, which contains four copies of the NF-κB binding site upstream of firefly luciferase gene (Moran et al., “Protein Kinase C-Associated Kinase can Activate NFkappaB in Both a Kinase-Dependent and a Kinase Independent Manner,” J. Biol. Chem. 278:21526-21533 (2003), which is hereby incorporated by reference in its entirety), together with the pBabe-puro for selection. Individual clones, selected with 1.5 μg/m puromycin, were assessed for NF-κB-luciferase reporter activation by TNFα and PMA. […]
Background: In a reporter assay the amount or activity of a reporter protein is the signal.

The next assay deals with T1, UbcH5c (Homo sapiens, UniProt P61077).
T1 construct: purchased Boston Biochem Inc E2-627
As to the kind of experiment: In vitro UbcH5c~Ub thioester conjugate formation. Type of assay: biochemical. The procedure:
Purified GST or GST-Ubc13 fusion proteins were incubated with the cell extract prepared from OCI-Ly10 cells with or without the presence of NSC697923 as indicated. The amounts of Uev1A protein associated with GST or GST-Ubc13 were analyzed by western blotting. The first lane was loaded with 8% of the input cell lysate. […] The assay was carried out as described in FIG. 4A, except that the loading buffer for SDS-PAGE gel contains no reducing agent, unless otherwise specified, and the reaction was analyzed by western blotting with a Ubc13-specific antibody. […] The assay was carried out as in FIG. 5B, except that UbcHSc, instead of Ubc13 and Uev1A, was used in the ubiquitination reaction and that a UbcHSc antibody was used for western blot analysis.
For detecting the E2-ubiquitin (Ubc13˜Ub or UbcH5c˜Ub) thioester conjugates, the reactions were carried out as described above without GST-TRAF6. The reactions were terminated with the SDS-sample buffer without a reducing agent unless specified. The products were analyzed by western blotting with an anti-Ubc13 or anti-UbcHSc antibody as indicated.

T1 sequence (P61077 whole entry): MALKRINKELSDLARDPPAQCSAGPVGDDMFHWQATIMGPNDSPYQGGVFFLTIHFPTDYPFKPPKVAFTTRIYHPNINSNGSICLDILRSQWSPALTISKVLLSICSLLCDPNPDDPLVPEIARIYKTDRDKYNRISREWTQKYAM

In the case of `Cc1ccc(S(=O)(=O)c2ccc([N+](=O)[O-])o2)cc1` [NSC697923, 2-nitro-5-tosylfuran], in assay [1], the “PMA-induced NF-κB activation (luciferase reporter)” value was “selective inhibitory effect; also recorded: inhibits NF-κB activation induced by PMA”. In addition, the “formation of UbcH5c~Ub conjugate” value on UbcH5c is given as “is not inhibited”.
